# US9101726B2, “Stem cell immune modulation methods of use and apparatus” (The Board of Trustees of the University of Illinois, priority 2009, dated 2015)
# Key:
# [1] = system: DNA methyltransferase (DNMT) activity of lymphocytes; assay: Regulation of DNA methyltransferase activity of lymphocytes by CB-SC-derived NO; assay type: cell-based
# allogeneic lymphocytes = assay: Suppression of CB-SC on allogeneic lymphocytes in presence of inhibitors; assay type: cell-based, human
# NO production in CB-SC = assay: Real time assay for NO production in CB-SC; assay type: cell-based, human
# nitric oxide synthase = assay: Blocking of the inhibitory effect of stem cells on lymphocytes with nitric oxide synthase inhibitor; assay type: cell-based
# [2] = system: CD4+CD25+CD62L+CD69+ Tregs; assay: Co-culture of PHA-stimulated lymphocytes with CB-SC in presence of CPM inhibitor and B1R antagonist; assay type: cell-based, human; settings: MGTA 10 μM, DALKD 2 μM
# Source text: To examine the cell-cell contacting effects and CPM and B1R contribution to immune modulation of CB-SC on human Tregs, we performed co-culture experiments in the presence of CPM specific inhibitor MGTA and B1R specific inhibitor DALKD. Lymphocytes plated in trans-wells served as controls. […] Data are representative of five experiments.
# [3] = in combination with B1R activator DAKD
molecule,measurement,setting,value
CC(=N)NCc1cccc(CN)c1 [1400 W],epigenetic regulation on DNMT activity of lymphocytes by CB-SC-derived NO,[1],significantly blocked
same,suppression of CB-SC on allogeneic lymphocytes,allogeneic lymphocytes,reverse the suppression
same,NO production in CB-SC,NO production in CB-SC; [3],inhibited
"NC(=NCCC[C@H](N)C(=O)O)N[N+](=O)[O-] [L-NNA, N-omega-nitro-L-arginine]",inhibitory effect of stem cells mediated by nitric oxide (NO),nitric oxide synthase,blocking
"[Des-Arg10, Leu9] kallidin [DALKD]",positive percentage of CD4+CD25+CD62L+CD69+ Tregs,[2],decrease
same,NO production in CB-SC,NO production in CB-SC; [3],inhibited
des-Arg 10-bradykinin (KRPPGFSPF) [DAKD],NO production in CB-SC,NO production in CB-SC; agent alone,increased
